Data set [1] has as its system Plasmodium falciparum. As to the kind of experiment: Antimalarial activity against Plasmodium falciparum K1 infected in human erythrocytes assessed as inhibition of [3H]hypoxanthine incorporation incubated for 24 hrs prior to hypoxanthine addition measured after 18 hrs by liquid scintillation counting. The format is functional, organism-based.
Data set [2] is described as follows: Cytotoxicity against human MCF7 cells assessed as growth inhibition at 25 ug/mL by SRB assay. Type of data set: cell-based. To be noted: read-out: GI.
Data set [3] deals with Plasmodium falciparum. As to the kind of experiment: Antimalarial activity against Plasmodium falciparum K1 infected in human erythrocytes assessed as inhibition of [3H]hypoxanthine incorporation at 10 ug/mL incubated for 24 hrs prior to hypoxanthine addition measured after 18 hrs by liquid scintillation counting. The format is functional, organism-based.

Active and inactive are the calls of the source. The calls are words filed in the database; no cut-off is given here. Some results are limits rather than exact numbers.

`[C-]#[N+][C@@]12CCC(=C)[C@H]3[C@H](CC(C)(C)NC=O)C[C@H](C)[C@@H](CC[C@@H]1C)[C@@H]32`: the IC50 in data set [1] came to 0.52 µM. For the same compound, in data set [2], the inhibition at 25 ug/mL was below 50%.
In the case of `C=C(C)C[C@@H]1C[C@H](C)[C@H]2CC[C@](C)(NC=O)[C@H]3CCC(=C)[C@@H]1[C@H]23`, the outcome in data set [3] was inactive. In addition, in data set [2], the inhibition at 25 ug/mL was below 50%.
Turning to `C=C1CC[C@@]2(N=C=O)[C@H]3[C@H](CC[C@@H]2C)[C@@H](C)C[C@@H](CC(C)(C)NC=O)[C@H]13`, the IC50 in data set [1] was found to be 8.85 µM. The inhibition at 25 ug/mL in data set [2] was below 50%.
The like results for `C=C1CC[C@@]2(N=C=S)[C@H]3[C@H](CC[C@@H]2C)[C@@H](C)C[C@@H](CC(C)(C)NC=O)[C@H]13` were, in that order, 8.07 µM and below 50%.
With `C[C@H]1[C@@H](O)O[C@@H]2O[C@@]3(C)CC[C@H]4[C@H](C)CC[C@@H]1[C@@]24OO3` [ARTENIMOL], the IC50 in data set [1] came out at 0.0038 µM.

The term IC50 denotes the concentration at which inhibition is half-maximal.

The record behind these values is ChEMBL document CHEMBL2034875, “Bifunctionalized amphilectane diterpenes from the sponge Stylissa cf. massa” (J Nat Prod, 2012).
